“Also recorded” adds a separate entry of the source. Like-named read-outs stand apart in the source and are kept apart here.
Tests used:
[1] = target: T1, TTR (Homo sapiens, UniProt P02766); test: Isothermal titration calorimetry (ITC); format: binding; conditions: for ΔG1 / ΔH1 / ΔG2 / ΔH2: ITC; for ΔG1 / ΔH1: first binding site; for ΔG2 / ΔH2: second binding site; for Kd: TTR 2 μM titrated with 25 μM compound, PBS pH 7.4, 25° C., two-site negative cooperativity model
T1 construct: purchased Sigma; host or cells: human plasma

[2] = target: T2, V122I-TTR in serum from FAC patients (Homo sapiens, UniProt P02766, V142I); test: Serum V122I-TTR tetramer stability against acid denaturation; format: biochemical; conditions: 10 μM compound, pH 4.0, 72 hours
T2 construct: stabilization of V122I-TTR in serum from two FAC patients; from tissue; host or cells: serum of two FAC patients carrying V122I

[3] = tested on: Hep3B, Jurkat, MCF7 and HeLa cell lines; test: Cytotoxicity assay (MTT), panel of four cell lines; format: cell-based; conditions: 1 to 100 μM, 24 h
Procedure: (§1) Cell viability results are reported relative to cells treated with vehicle only (100% cell viability).
(§2) 5×10^3 cells were seeded on 80 μl growth media (except 2.5×10^4 Jurkat cells) in each well in 96-well plates and incubate O/N at 37° C. 20 μl of fresh growth media containing each compound were added into each well to make the final concentration ranging from 1-100 μM. DMSO was used for normalization. Cell titer was tested every 24 h using CellTiter 96 non-radioactive cell proliferation assay kit (Promega, Madison, Wis.) at 560 nm absorbance.

[4] = target: T3, WT-TTR in human serum (Homo sapiens, UniProt P02766); test: Serum WT-TTR tetramer stability against acid denaturation; conditions: 10 μM compound, human serum (TTR ~5 μM), pH 4.0, 72 hours
Procedure: Serum samples were incubated in acetate buffer (pH 4.0), with DMSO or 10 μM of test compound, for the desired time period (0 and 72 hours) before cross-linking, SDS-PAGE, and immunoblotting. The density of all TTR bands (TTR tetramer; arrowhead and TTR bound to RBP; solid arrow) was quantified using an Odyssey infrared imaging system (LI-COR Bioscience, Lincoln, Nebr.) and reported as % TTR tetramer=100×[(tetramer & tetramer+RBP density, 72 hrs)/(tetramer & tetramer+RBP density of DMSO, 0 hrs)].
All compounds were 10 mM stock solutions in DMSO and diluted accordingly with DMSO for different assays. 0.5 μl of each compound was added to 24.5 μl of human serum (from human male AB plasma, Sigma) to make the final concentration of 10 μM. The samples were incubated at 37° C. for 2 h, and then 10 μl of the samples were diluted 1:10 with acidification buffer (pH 4.0, 100 mM sodium acetate, 100 mM KCl, 1 mM EDTA, 1 mM DTT). […] All the samples were denatured with adding 100 μl SDS gel loading buffer and boiled for 5 min. […] The normalization was done by dividing each value of the TTR tetramer band intensity by the average of all the values at time 0.
The compounds were tested for their ability to stabilize WT-TTR in human serum (FIG. 5). […] Test compounds (10 μM) were pre-incubated with human serum (TTR ˜5 μM) and the pH was lowered to pH 4.0 to induce aggregation. Aliquots, taken at 0 and 72 hours, were treated with glutaraldehyde to cross-link TTR tetramers that remained intact in the serum sample. SDS-PAGE followed by immunoblot analysis was used to measure the amount of intact TTR tetramer after 72 hours of acid treatment in the presence and absence of test compounds.

[5] = target: T3, WT-TTR in human serum; test: Serum TTR selectivity assay (covalent probe 6 competition); format: binding; parameters: tissue Sigma-Aldrich; host or cells: human serum (A4: from human male AB plasma); conditions: 10 μM compound, 3.6 μM probe, human serum (TTR ~5 μM), after 6 hours; lower = more selective
Procedure: 98 μL of human serum (Sigma-Aldrich) was mixed with 1 μL of test compounds (1.0 mM stock solution in DMSO, final concentration: 10 μM) and 1 μL of covalent probe 6 (0.36 mM stock solution in DMSO: final concentration: 3.6 μM). The fluorescence changes (λex=328 nm and λem=384 nm) were monitored every 10 min using a microplate spectrophotometer reader (Molecular Devices SpectraMax M5) for 6 h at 25° C.
Covalent probe 6 binds selectively to TTR in serum and covalently modifies K15, creating a fluorescent conjugate. Ligands that bind with high selectivity to TTR in serum decrease covalent probe 6 binding to TTR and therefore lower the fluorescence. All test compounds (10 μM) were incubated with human serum (WT-TTR concentration ˜5 μM) in the presence of covalent probe 6 (3.6 μM) (FIG. 4).

[6] = tested on: Hep3B cells; test: Cytotoxicity assay (MTT), Hep3B; format: cell-based, human; conditions: 1 to 100 μM, 24 h
Procedure: as §1, §2

[7] = tested on: Hela cells; test: Cytotoxicity assay (MTT), HeLa; format: cell-based; conditions: 1 to 100 μM, 24 h
Procedure: as §1, §2

[8] = tested on: MCF7 cells; test: Cytotoxicity assay (MTT), MCF7; format: cell-based; conditions: MCF7, 1 to 100 μM, 24 h
Procedure: as §1, §2

[9] = human subjects, 20 mg daily dose; read-out: mean maximum concentration (Cmax) in serum; cited from earlier work

SMILES | ΔG1 [1] | ΔH1 [1] [kcal/mol] | ΔG2 [1] | ΔH2 [1] [kcal/mol] | V122I-TTR tetramer stabilized [2] [%] | cytotoxicity towards the cell lines tested [3] | TTR tetramer stabilization (% TTR tetramer) [4] | covalent probe 6 binding to TTR relative to probe alone [5] [%] | Kd ([1]; read-out: Kd1) [nM] | Kd ([1]; read-out: Kd2) [nM] | concentration at which toxicity to certain cell lines is displayed [3] [µM] | concentration at which cytotoxicity is shown [6] [µM] | concentration at which cytotoxicity is shown [7] [µM] | concentration at which cytotoxic effects were observed [8] [µM] | Cmax [9] [µM]
Cc1n[nH]c(C)c1CCCOc1cc(C(=O)O)ccc1F [Compound VIIc, 3-(3-(3,5-Dimethyl-1H-pyrazol-4-yl)propoxy)-4-fluorobenzoic acid] | ~−11.4 | -13.6 | ~−8.8 | -7.5 | ~100 | not toxic; also recorded: no cytotoxic effects | 108+/−6% | 3.1±2.9 |  |  |  |  |  |  | 
Cc1n[nH]c(C)c1CCCOc1ccccc1F [Compound A] |  |  |  |  |  |  | 61.7%+/−2.1 | 59.3±8.7 | 58 | 500 | > 25 | > 25 | > 25 |  | 
O=C(O)c1ccc2nc(-c3cc(Cl)cc(Cl)c3)oc2c1 [tafamidis] | ~−11.4 | -5.0 | ~−8.8 | -3.9 |  |  | about 58%+/−3 |  |  |  |  |  |  | > 50 | ~7.4
